For the test, the system named is HIV-IIIb. Nature of the test: Test A: Antiviral Assay in MT4 Cells. In kind it is cell-based, HIV-1. The settings on record: for inhibition at 0.2 µM / inhibition at 2 µM: Human immunodeficiency virus 1, IIIB, MT4, 120 h; for inhibition at 0.2 µM: read-out: % inhibition at 0.2 μM; for inhibition at 2 µM: read-out: % inhibition at 2 μM; for Response at 0.2 μM: percent inhibition of virus-induced cell killing at 0.2 μM; for Response at 0.2 μM / Response at 2 μM: comparison with previously published compounds (WO 2013/006738); for Response at 2 μM: percent inhibition of virus-induced cell killing at 2 μM. As to the method:
Test A: Antiviral Assay in MT4 Cells
MT-4 cells were next mixed with HIV-IIIb at an m.o.i of 0.003 for 1 hour, after which time 35 μL of virus/cell mixture (2000 cells) was immediately added to each well containing 40 μL of diluted compound. The plates were then incubated at 37° C. for 5 days. […] Cell lysis was carried out by incubating at room temperature for 10 min and then chemiluminescence was read.

These results are taken from US20140303164A1, “THERAPEUTIC COMPOUNDS” (Gilead Sciences, Inc., priority 2013, published 2014).

By inhibition is commonly meant the change of the read-out against control, counted positive when it falls.

For the compound `NC(=O)c1ccc(-c2cnc3[nH]ccc3c2)c([C@H](Cc2cc(F)cc(F)c2)NC(=O)Cn2nc(C(F)F)c3c2C(F)(F)CCC3(F)F)n1` [Compound 1B, (S)-6-(1-(2-(3-(difluoromethyl)-4,4,7,7-tetrafluoro-4,5,6,7-tetrahydro-1H-indazol-1-yl)acetamido)-2-(3,5-difluorophenyl)ethyl)-5-(1H-pyrrolo[2,3-b]pyridin-5-yl)picolinamide], the inhibition at 0.2 µM amounted to 17%.
The same measure, in the same setting: next, `O=C(Cn1nc(C(F)F)c2c1C(F)(F)CCC2(F)F)N[C@@H](Cc1cc(F)cc(F)c1)c1ncc(-c2cnc3[nH]ccc3c2)cc1-c1cnc2[nH]ccc2c1` [Compound 11, (S)—N-(1-(3,5-di(1H-pyrrolo[2,3-b]pyridin-5-yl)pyridin-2-yl)-2-(3,5-difluorophenyl)ethyl)-2-(3-(difluoromethyl)-4,4,7,7-tetrafluoro-4,5,6,7-tetrahydro-1H-indazol-1-yl)acetamide]: 3%.
As to `CC(C)(O)C#Cc1ccc(-c2cccc3c2CNC3=O)c([C@H](Cc2cc(F)cc(F)c2)NC(=O)Cn2nc(C(F)(F)F)c3c2C(F)(F)[C@@H]2C[C@H]32)n1` [Compound 14E, 2-((3bS,4aR)-5,5-difluoro-3-(trifluoromethyl)-3b,4,4a,5-tetrahydro-1H-cyclopropa[3,4]cyclopenta[1,2-c]pyrazol-1-yl)-N—((S)-2-(3,5-difluorophenyl)-1-(6-(3-hydroxy-3-methylbut-1-yn-1-yl)-3-(1-oxoisoindolin-4-yl)pyridin-2-yl)ethyl)acetamide], the inhibition at 0.2 µM amounted to 87%.
In the case of `O=C(Cn1nc(C(F)F)c2c1C(F)(F)CCC2(F)F)N[C@@H](Cc1cc(F)cc(F)c1)c1nc(-c2ccc3c(c2)C(=O)NC3)ccc1-c1ccc2c(c1)C(=O)NC2` [Compound 6, (S)—N-(1-(3,6-bis(3-oxoisoindolin-5-yl)pyridin-2-yl)-2-(3,5-difluorophenyl)ethyl)-2-(3-(difluoromethyl)-4,4,7,7-tetrafluoro-4,5,6,7-tetrahydro-1H-indazol-1-yl)acetamide], the inhibition at 0.2 µM was 5%.
As for `Cn1nc(NS(C)(=O)=O)c2c(Cl)ccc(-c3ccc(C#CC(C)(O)C(F)F)nc3[C@H](Cc3cc(F)cc(F)c3)NC(=O)Cn3nc(C(F)F)c4c3C(F)(F)[C@@H]3C[C@H]43)c21` (stereo partly drawn) [Compound 169, N-((1S)-1-(3-(4-chloro-1-methyl-3-(methylsulfonamido)-1H-indazol-7-yl)-6-(4,4-difluoro-3-hydroxy-3-methylbut-1-yn-1-yl)pyridin-2-yl)-2-(3,5-difluorophenyl)ethyl)-2-((3b-S,4aR)-3-(difluoromethyl)-5,5-difluoro-3b,4,4a,5-tetrahydro-1H-cyclopropa[3,4]cyclopenta[1,2-c]pyrazol-1-yl)acetamide], the inhibition at 0.2 µM was 92% and the inhibition at 2 µM amounted to 92%.
Turning to `CC(C)(O)C#Cc1ccc(-c2ccc3c(c2)C(=O)NC3)c([C@H](Cc2cc(F)cc(F)c2)NC(=O)Cn2nc(C(F)F)c3c2C(F)(F)CCC3(F)F)n1` [Compound 9B, (S)-2-(3-(difluoromethyl)-4,4,7,7-tetrafluoro-4,5,6,7-tetrahydro-1H-indazol-1-yl)-N-(2-(3,5-difluorophenyl)-1-(6-(3-hydroxy-3-methylbut-1-yn-1-yl)-3-(3-oxoisoindolin-5-yl)pyridin-2-yl)ethyl)acetamide], the inhibition at 0.2 µM turned out to be 92%.
Still for that read-out and setting: the figure for `O=C(Cn1nc(C(F)F)c2c1C(F)(F)CCC2(F)F)N[C@@H](Cc1cc(F)cc(F)c1)c1ncc(-c2ccc3c(c2)C(=O)NC3)cc1-c1ccc2c(c1)C(=O)NC2` [Compound 10B, (S)—N-(1-(3,5-bis(3-oxoisoindolin-5-yl)pyridin-2-yl)-2-(3,5-difluorophenyl)ethyl)-2-(3-(difluoromethyl)-4,4,7,7-tetrafluoro-4,5,6,7-tetrahydro-1H-indazol-1-yl)acetamide] is 1%.
For the compound `CC(C)(O)C#Cc1ccc(-c2ccc(F)c(C(N)=O)c2)c([C@H](Cc2cc(F)cc(F)c2)NC(=O)Cn2nc(C(F)(F)F)c3c2C(F)(F)[C@@H]2C[C@H]32)n1` [Compound 18, 5-(2-((S)-1-(2-((3bS,4aR)-5,5-difluoro-3-(trifluoromethyl)-3b,4,4a,5-tetrahydro-1H-cyclopropa[3,4]cyclopenta[1,2-c]pyrazol-1-yl)acetamido)-2-(3,5-difluorophenyl)ethyl)-6-(3-hydroxy-3-methylbut-1-yn-1-yl)pyridin-3-yl)-2-fluorobenzamide], the “Response at 0.2 μM” value was 96% and the “Response at 2 μM” value is recorded as 90%.
As to `CC(C)(O)C#Cc1cnc([C@H](Cc2cc(F)cc(F)c2)NC(=O)Cn2nc(C(F)F)c3c2C(F)(F)CCC3(F)F)c(-c2ccc3c(c2)C(=O)NC3)c1` [Compound 4H, (S)-2-(3-(difluoromethyl)-4,4,7,7-tetrafluoro-4,5,6,7-tetrahydro-1H-indazol-1-yl)-N-(2-(3,5-difluorophenyl)-1-(5-(3-hydroxy-3-methylbut-1-ynyl)-3-(3-oxoisoindolin-5-yl)pyridin-2-yl)ethyl)acetamide], the inhibition at 0.2 µM turned out to be 8%.
`Cn1nc(NS(C)(=O)=O)c2c(F)ccc(-c3ccc(C#CC(C)(C)O)nc3[C@H](Cc3cc(F)cc(F)c3)NC(=O)Cn3nc(C(F)F)c4c3C(F)(F)[C@@H]3C[C@H]43)c21` [Compound 75, 2-((3b-S,4aR)-3-(difluoromethyl)-5,5-difluoro-3b,4,4a,5-tetrahydro-1H-cyclopropa[3,4]cyclopenta[1,2-c]pyrazol-1-yl)-N—((S)-2-(3,5-difluorophenyl)-1-(3-(4-fluoro-1-methyl-3-(methylsulfonamido)-1H-indazol-7-yl)-6-(3-hydroxy-3-methylbut-1-yn-1-yl)pyridin-2-yl)ethyl)acetamide]: the inhibition at 0.2 µM is 92% and the inhibition at 2 µM is 93%.
Regarding `COc1cc(-c2ccc(-c3ccc4c(c3)C(=O)NC4)c([C@H](Cc3cc(F)cc(F)c3)NC(=O)Cn3nc(C(F)F)c4c3C(F)(F)CCC4(F)F)n2)ccn1` [Compound 8C, (S)-2-(3-(difluoromethyl)-4,4,7,7-tetrafluoro-4,5,6,7-tetrahydro-1H-indazol-1-yl)-N-(2-(3,5-difluorophenyl)-1-(2′-methoxy-5-(3-oxoisoindolin-5-yl)-[2,4′-bipyridin]-6-yl)ethyl)acetamide], the inhibition at 0.2 µM worked out at 6%.
Regarding `Cn1nc(NS(C)(=O)=O)c2c(Cl)ccc(-c3ccc(C#CC(C)(C)N)nc3[C@H](Cc3cc(F)cc(F)c3)NC(=O)Cn3nc(C(F)F)c4c3C(F)(F)[C@@H]3C[C@H]43)c21` [Compound 127, N—((S)-1-(6-(3-amino-3-methylbut-1-yn-1-yl)-3-(4-chloro-1-methyl-3-(methylsulfonamido)-1H-indazol-7-yl)pyridin-2-yl)-2-(3,5-difluorophenyl)ethyl)-2-((3bS,4aR)-3-(difluoromethyl)-5,5-difluoro-3b,4,4a,5-tetrahydro-1H-cyclopropa[3,4]cyclopenta[1,2-c]pyrazol-1-yl)acetamide], the inhibition at 0.2 µM is 92% and the inhibition at 2 µM was found to be 92%.
Turning to `COc1ccc(-c2ccc(C#CC(C)(C)O)nc2[C@H](Cc2cc(F)cc(F)c2)NC(=O)Cn2nc(C(F)F)c3c2C(F)(F)[C@@H]2C[C@H]32)c2c1c(NS(C)(=O)=O)nn2C` [Compound 141D, 2-((3b-S,4aR)-3-(difluoromethyl)-5,5-difluoro-3b,4,4a,5-tetrahydro-1H-cyclopropa[3,4]cyclopenta[1,2-c]pyrazol-1-yl)-N—((S)-2-(3,5-difluorophenyl)-1-(6-(3-hydroxy-3-methylbut-1-yn-1-yl)-3-(4-methoxy-1-methyl-3-(methylsulfonamido)-1H-indazol-7-yl)pyridin-2-yl)ethyl)acetamide], the inhibition at 0.2 µM turned out to be 100% and the inhibition at 2 µM is 100%.
With `O=C(Cn1nc(C(F)F)c2c1C(F)(F)CCC2(F)F)N[C@@H](Cc1cc(F)cc(F)c1)c1nc(-c2cc[nH]c(=O)c2)ccc1-c1ccc2c(c1)C(=O)NC2` [Compound 12, (S)-2-(3-(difluoromethyl)-4,4,7,7-tetrafluoro-4,5,6,7-tetrahydro-1H-indazol-1-yl)-N-(2-(3,5-difluorophenyl)-1-(2′-oxo-5-(3-oxoisoindolin-5-yl)-1′,2′-dihydro-[2,4′-bipyridin]-6-yl)ethyl)acetamide], the inhibition at 0.2 µM was found to be 1%.
Consider `NC(=O)c1cc(-c2ccc(-c3ccc(F)c(C(N)=O)c3)c([C@H](Cc3cc(F)cc(F)c3)NC(=O)Cn3nc(C(F)F)c4c3C(F)(F)CCC4(F)F)n2)ccc1F` [Compound 5G, (S)-5,5′-(6-(1-(2-(3 (difluoromethyl)-4,4,7,7-tetrafluoro-4,5,6,7-tetrahydro-1H-indazol-1-yl)acetamido)-2-(3,5-difluorophenyl)ethyl)pyridine-2,5-diyl)bis(2-fluorobenz amide)], for which the “Response at 0.2 μM” value worked out at 3% and the “Response at 2 μM” value worked out at 58%.
Regarding `CC(C)(O)C#Cc1ccc(-c2cccc3c(=O)[nH]c(=O)[nH]c23)c([C@H](Cc2cc(F)cc(F)c2)NC(=O)Cn2nc(C(F)(F)F)c3c2C(F)(F)[C@@H]2C[C@H]32)n1` [Compound 17, 2-((3bS,4aR)-5,5-difluoro-3-(trifluoromethyl)-3b,4,4a,5-tetrahydro-1H-cyclopropa[3,4]cyclopenta[1,2-c]pyrazol-1-yl)-N—((S)-2-(3,5-difluorophenyl)-1-(3-(2,4-dioxo-1,2,3,4-tetrahydroquinazolin-8-yl)-6-(3-hydroxy-3-methylbut-1-ynyl)pyridin-2-yl)ethyl)acetamide], the inhibition at 0.2 µM was 95%.
